Entries after “also recorded” stand apart in the source; their conditions may differ. Where a SMILES comes first, the peptide text is derived from it. The star is where a group is joined. Palmitoyl = CCCCCCCCCCCCCCCC(=O)*

The results in this text go back to paper PMC11468294, “Peptide Amphiphiles as Biodegradable Adjuvants for Efficient Retroviral Gene Delivery” (Advanced Healthcare Materials, 2023).

Series [1] relates to HIV-1 infection of TZM-bl cells. Nature of the series: HIV-1 infection assay (β-galactosidase luminescence reporter). Format: cell-based. The settings on record: infectivity enhancing if n-fold at 1.3 µM larger than 2. The procedure, abridged:
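TZM-bl cells (10000 per well) were seeded one day before infection. Peptide nanofibril solution was mixed 1:1 (v/v) with HIV-1 (1:500 dilution) for 10 min before inoculation. Infection was read as β-galactosidase luminescence, in technical triplicates across three independent experiments.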

The nature of series [2]: Control experiments degradation analysis without cells. Format: physicochemical. The following applies: Proteostat-stained fibrils without cells, 37°C, 30 min vs 3 d. How it is done: Control experiments degradation analysis: To check changes of fibril aggregation without cells fluorescence microscopy measurements (Leica DMi8 microscope, 10x air objective, Leica MC170 HD camera, λem = 527/30 nm, λex = 480/40 nm) were performed analogously to the cell‐experiments with PA1‐3. Briefly, 4 µL of the preformed peptide fibrils (1 mg mL^−1) were diluted with 4 µL Proteostat (Enzo Life Science, 1 µL stock in 999 µL PBS) and incubated for 10 min and further diluted with medium to receive a final peptide concentration of 20 µg mL^−1. The fibril aggregates were monitored after 30 min incubation at 37°C and for the evaluation of aggregate degradation, the samples were further incubated at 37°C for 3 d and analyzed without any additional washing step. […] The evaluation of aggregate size and number was conducted by analyzing Proteostat stained aggregates via the 3D objects counter function of ImageJ 1.53f51 for at least three individual measurements (area 1331.2 µm × 1331.2 µm) of three individually repeated experiments. […]
Aggregate analysis was conducted via fluorescence microscopy by cumulating triplicate measurements. […]

The nature of series [3]: ThT fluorescence. Format: physicochemical. Details: key: + = ThT active; − = no ThT fluorescence observed. The following applies: 1 mg mL-1 in PBS; ThT-active if fluorescence at least twice the control (PBS with 10% DMSO). How it is done:
ThT‐fluorescence: 20 µL 50 µM of ThT solution in PBS was pipetted in a black 384 well‐plate and 4 µL of the nanofibril solution 1 mg mL^−1 were added. For reference PBS with 10% DMSO (4 µL) instead of fibril solution was added. Subsequently, fluorescence emission was recorded λem = 488 nm upon excitation at λex = 440 nm with 10 nm bandwidth and multiple reads per well (3 × 3) using a Spark 20 M microplate reader (Tecan Group, Ltd). Data processing was performed with Origin software. A peptide fibril was considered as ThT‐active if the fluorescence intensity was at least twice as strong compared to the control (PBS containing 10% DMSO).

For series [4], the system named is Jurkat cells. Nature of the series: CellTiter-Glo cell viability, Jurkat cells. Format: cell-based. The following applies: increasing peptide concentrations, 3 days, biological triplicate. How it is done:
Cell Viability with TZM‐bl and Jurkat cells: The cell viability after addition of peptides to TZM‐bl cells and Jurkat was studied via the CellTiter‐Glo assay. To this end, 20000 cells TZM‐bl or 50000 Jurkat cells were incubated with serial diluted peptides. After 3 days the supernatant was removed and 100 µL CellTiter‐Glo Reagent 1:1 diluted in PBS was added. After 10 min 50 µL was transferred to white microplate and luminescence was recorded by Orion microplate luminometer.

Series [5] in a line: Microscopic aggregation (fluorescence / confocal microscopy, derived count rate). Format: physicochemical. The following applies: for formation of µm-sized aggregates (in words): fibrils preformed at 1 mg mL-1 in PBS, ThT or Proteostat stain, widefield or confocal microscopy, derived count rate > 1000 kcps as criterion; for assembly in water (fluorescence microscopy): incubated 1 d in pure MilliQ water, ThT stain.

For `CCCCCCCCCCCCCCCC(=O)N[C@@H](Cc1ccccc1)C(=O)N[C@@H](CCC(N)=O)C(=O)N[C@@H](Cc1ccccc1)C(=O)N[C@@H](CCCCN)C(=O)N[C@@H](Cc1ccccc1)C(=O)N[C@@H](CCCCN)C(=O)N[C@@H](CS)C(N)=O` [PA2] (Palmitoyl-FQFKFKC-NH2), the “infectivity enhancement of HIV-1 (in words)” value in series [1] was “strong infectivity enhancement of HIV‐1 in the range of EF‐C”. For the same compound, the “change of aggregate size and number without cells” value in series [2] is “not significantly changing in size and number”. For the same compound, the ThT fluorescence entry in series [3] is recorded as “+”. In series [4], the “viability of Jurkat cells” value is listed as “did not reduce the viability”. Besides, in series [5], the “formation of µm-sized aggregates (in words)” value is listed as “micrometer‐sized clusters of fibrils were formed; also recorded: high aggregation; also recorded: form µm‐sized aggregates” and the “assembly in water (fluorescence microscopy)” value was “distinct fibrils”.
Take C16-VVVAAAKKK-NH2 [PA1]: the “infectivity enhancement of HIV-1 (in words)” value in series [1] is “strong infectivity enhancement of HIV‐1 in the range of EF‐C”. For the same compound, the “change of aggregate size and number without cells” value in series [2] was “not significantly changing in size and number”. In addition, the ThT fluorescence entry in series [3] is “+”. Also, the “viability of Jurkat cells” value in series [4] is “did not reduce the viability”. In series [5], the “formation of µm-sized aggregates (in words)” value is on record as “micrometer‐sized clusters of fibrils were formed; also recorded: less aggregation; also recorded: form µm‐sized aggregates” and the “assembly in water (fluorescence microscopy)” value is “distinct fibrils”.
